Laboratory results as given in paper PMC3639963, “A New Class of Small Molecule Inhibitor of BMP Signaling” (PLoS ONE, 2013).
“And” between values parts separate entries of the source, which are not always exact repeats. Identical values can stand only once.

How the values were obtained:
[1] = test system: mRFP under control of a BMP response element; assay: Western blot for mRFP in Tg(BRE:mRFP) embryos; type: in vivo, zebrafish; details: 26 hours old embryos
Description: (§1) Inhibitor stocks were diluted in DMSO and then further diluted in fish water to give the required inhibitor concentrations. To minimize the amount of inhibitors used, experiments were performed in 24-well plates with approximately 20 embryos per well in a volume of 1 mL. The chemical treatment was applied by immersing 8- to 16-cell stage Tg(BRE:mRFP) embryos (dorsalization experiment) or 12 hours old Tg(fli1a:eGFP) embryos (ISV experiment) in the fish water supplemented with DMSO or the chemical inhibitors. For the ISV experiment, embryos were manually dechorionated after bud stage before treatment. Embryos were scored and photographed at 26 or 48 hours.
Ten non-dechorionated 26 hours old treated Tg(BRE:mRFP) embryos were snap frozen on dry ice and stored at −80°C. Protein extracts were prepared as described previously for Xenopus embryos. Extraction buffer was freshly prepared. 10 µL per embryo of the protein extract buffer was used to lyse the embryos using a plastic pestle and a pellet pestle motor (Kontes). 40 µg (∼ 1 embryo equivalent) of protein extract was loaded per lane on a 12.5% SDS-PAGE gel. The rabbit anti-mRFP (Invitrogen, R10367) and the goat anti-MCM6 (Santa Cruz, sc-9843) antibodies were used for Western blots.

ALK3 = biological target: T1, ALK3 (Homo sapiens, UniProt P36894); assay: In vitro kinase assay ([γ-32P]ATP); type: biochemical; details: at the Km value of ATP; triplicate
T1 construct: purchased Nanosyn (enzymatic panel); SGC in-house recombinant human kinases (DSF panel); Invitrogen (ALK1-6)
T1 sequence (P36894 24-532): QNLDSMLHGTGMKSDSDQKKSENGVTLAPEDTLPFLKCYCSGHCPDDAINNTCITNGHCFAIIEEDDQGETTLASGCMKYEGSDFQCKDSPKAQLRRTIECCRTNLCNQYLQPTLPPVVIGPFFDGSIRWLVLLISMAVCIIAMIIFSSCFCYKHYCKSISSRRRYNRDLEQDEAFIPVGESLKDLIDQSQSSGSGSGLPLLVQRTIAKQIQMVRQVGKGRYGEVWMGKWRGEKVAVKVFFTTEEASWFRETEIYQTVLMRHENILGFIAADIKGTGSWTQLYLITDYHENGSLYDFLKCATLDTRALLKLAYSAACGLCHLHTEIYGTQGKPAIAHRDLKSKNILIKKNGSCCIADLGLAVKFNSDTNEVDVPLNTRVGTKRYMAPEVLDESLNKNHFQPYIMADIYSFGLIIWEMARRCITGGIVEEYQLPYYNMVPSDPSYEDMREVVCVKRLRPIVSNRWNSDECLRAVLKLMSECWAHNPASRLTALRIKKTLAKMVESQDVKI
Description: (§2) Inhibitors were added at concentrations between 0 and 10 µM in kinase reaction buffer and tested in triplicate.

ALK6 = biological target: T2, ALK6 (Homo sapiens, UniProt O00238); assay: In vitro kinase assay ([γ-32P]ATP); type: biochemical; details: at the Km value of ATP; triplicate
T2 construct: purchased Nanosyn (enzymatic panel); SGC in-house recombinant human kinases (DSF panel); Invitrogen (ALK1-6)
T2 sequence (O00238 14-502): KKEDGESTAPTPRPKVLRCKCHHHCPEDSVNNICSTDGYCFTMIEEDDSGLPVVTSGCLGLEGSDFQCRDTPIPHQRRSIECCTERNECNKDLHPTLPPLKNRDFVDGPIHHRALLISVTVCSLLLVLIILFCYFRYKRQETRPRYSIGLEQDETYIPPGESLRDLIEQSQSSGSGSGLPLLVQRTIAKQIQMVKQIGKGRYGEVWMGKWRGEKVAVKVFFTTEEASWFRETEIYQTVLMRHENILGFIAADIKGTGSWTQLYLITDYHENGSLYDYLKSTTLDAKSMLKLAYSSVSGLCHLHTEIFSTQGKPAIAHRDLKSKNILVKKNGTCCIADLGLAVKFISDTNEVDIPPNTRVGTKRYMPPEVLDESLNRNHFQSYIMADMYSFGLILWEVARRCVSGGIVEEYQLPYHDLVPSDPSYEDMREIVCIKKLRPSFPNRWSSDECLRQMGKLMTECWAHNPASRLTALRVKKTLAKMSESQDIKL
Description: as §2

ALK4 = biological target: T3, ALK4 (Homo sapiens, UniProt P36896); assay: In vitro kinase assay ([γ-32P]ATP); type: biochemical; details: at the Km value of ATP; triplicate
T3 construct: purchased Invitrogen
T3 sequence (P36896 24-505): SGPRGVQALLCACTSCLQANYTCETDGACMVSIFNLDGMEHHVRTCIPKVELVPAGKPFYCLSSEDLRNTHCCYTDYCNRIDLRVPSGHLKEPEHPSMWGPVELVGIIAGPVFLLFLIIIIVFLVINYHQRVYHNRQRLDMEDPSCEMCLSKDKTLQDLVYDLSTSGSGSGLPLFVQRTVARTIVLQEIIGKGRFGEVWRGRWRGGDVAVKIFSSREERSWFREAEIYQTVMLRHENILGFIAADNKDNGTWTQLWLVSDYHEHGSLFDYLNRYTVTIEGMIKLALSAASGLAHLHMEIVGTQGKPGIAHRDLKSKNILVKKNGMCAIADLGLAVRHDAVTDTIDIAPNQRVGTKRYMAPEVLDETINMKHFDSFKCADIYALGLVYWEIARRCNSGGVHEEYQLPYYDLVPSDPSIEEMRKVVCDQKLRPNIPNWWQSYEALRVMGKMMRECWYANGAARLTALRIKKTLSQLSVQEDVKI
Description: as §2

ALK1 = biological target: T4, ALK1 (Homo sapiens, UniProt P37023); assay: In vitro kinase assay ([γ-32P]ATP); type: biochemical; details: at the Km value of ATP; triplicate
T4 construct: purchased Nanosyn (enzymatic panel); SGC in-house recombinant human kinases (DSF panel); Invitrogen (ALK1-6)
T4 sequence (P37023 22-503): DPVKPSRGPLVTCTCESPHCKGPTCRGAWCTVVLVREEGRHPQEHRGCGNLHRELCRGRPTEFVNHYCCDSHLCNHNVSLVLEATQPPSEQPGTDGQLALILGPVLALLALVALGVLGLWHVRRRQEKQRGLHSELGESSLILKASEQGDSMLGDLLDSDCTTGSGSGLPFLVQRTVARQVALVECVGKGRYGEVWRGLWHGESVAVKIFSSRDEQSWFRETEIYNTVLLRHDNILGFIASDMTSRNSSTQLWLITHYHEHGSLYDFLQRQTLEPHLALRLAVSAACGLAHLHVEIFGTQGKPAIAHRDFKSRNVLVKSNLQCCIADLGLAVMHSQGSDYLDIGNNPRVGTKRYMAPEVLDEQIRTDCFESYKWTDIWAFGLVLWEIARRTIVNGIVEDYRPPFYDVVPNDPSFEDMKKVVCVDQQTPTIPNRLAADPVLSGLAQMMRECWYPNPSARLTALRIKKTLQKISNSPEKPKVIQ
Description: as §2

MAP4K4 = biological target: T5, MAP4K4 (Homo sapiens, UniProt O95819); assay: Nanosyn kinase profiling; type: biochemical; details: read-out: Percentage inhibition
T5 construct: purchased Nanosyn (enzymatic panel); SGC in-house recombinant human kinases (DSF panel); Invitrogen (ALK1-6)
T5 sequence (O95819 whole entry): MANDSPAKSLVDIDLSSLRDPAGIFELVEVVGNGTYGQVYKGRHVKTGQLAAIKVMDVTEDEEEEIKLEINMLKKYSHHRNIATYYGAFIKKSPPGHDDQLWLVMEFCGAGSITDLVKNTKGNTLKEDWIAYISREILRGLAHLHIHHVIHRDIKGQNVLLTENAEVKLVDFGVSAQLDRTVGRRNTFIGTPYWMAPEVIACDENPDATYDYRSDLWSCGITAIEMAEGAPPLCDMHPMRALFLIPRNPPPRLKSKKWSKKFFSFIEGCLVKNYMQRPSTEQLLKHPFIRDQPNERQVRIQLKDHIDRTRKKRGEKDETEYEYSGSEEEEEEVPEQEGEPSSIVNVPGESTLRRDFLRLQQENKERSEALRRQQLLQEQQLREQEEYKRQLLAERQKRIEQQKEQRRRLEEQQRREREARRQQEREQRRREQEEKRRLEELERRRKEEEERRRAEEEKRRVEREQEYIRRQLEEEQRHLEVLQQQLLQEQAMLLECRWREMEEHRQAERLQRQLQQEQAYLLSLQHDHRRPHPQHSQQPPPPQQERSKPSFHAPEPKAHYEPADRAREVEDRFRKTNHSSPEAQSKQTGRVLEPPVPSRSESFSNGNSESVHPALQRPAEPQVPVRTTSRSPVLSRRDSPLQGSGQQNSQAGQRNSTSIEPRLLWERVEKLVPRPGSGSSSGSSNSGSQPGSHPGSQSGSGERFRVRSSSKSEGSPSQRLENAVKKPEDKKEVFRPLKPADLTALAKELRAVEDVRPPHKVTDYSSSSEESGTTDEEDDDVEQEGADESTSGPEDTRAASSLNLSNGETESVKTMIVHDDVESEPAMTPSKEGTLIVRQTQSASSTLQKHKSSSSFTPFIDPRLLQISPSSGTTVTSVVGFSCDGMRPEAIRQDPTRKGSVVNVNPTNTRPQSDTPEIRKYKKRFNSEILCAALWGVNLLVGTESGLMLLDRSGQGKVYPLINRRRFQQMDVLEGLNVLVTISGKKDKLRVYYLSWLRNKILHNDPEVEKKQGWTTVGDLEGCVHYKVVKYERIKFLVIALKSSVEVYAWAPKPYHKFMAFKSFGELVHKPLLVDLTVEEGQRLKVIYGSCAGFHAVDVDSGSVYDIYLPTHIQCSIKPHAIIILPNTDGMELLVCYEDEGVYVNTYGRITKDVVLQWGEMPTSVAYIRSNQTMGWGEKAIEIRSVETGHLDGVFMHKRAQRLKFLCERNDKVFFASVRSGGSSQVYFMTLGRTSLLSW
Description: (§3) Percentage inhibition was determined for each kinase at both 0.1 µM and 1 µM inhibitor concentration (supplemental Table S2).
(§4) Inhibitor selectivity profiling against 200 human kinases at 0.1 and 1 µM inhibitor concentration was performed by Nanosyn (www.nanosyn.com).

FMS = biological target: T6, FMS (Homo sapiens, UniProt P07333); assay: Nanosyn kinase profiling; type: biochemical; details: read-out: Percentage inhibition
T6 construct: purchased Nanosyn (enzymatic panel); SGC in-house recombinant human kinases (DSF panel); Invitrogen (ALK1-6)
T6 sequence (P07333 20-972): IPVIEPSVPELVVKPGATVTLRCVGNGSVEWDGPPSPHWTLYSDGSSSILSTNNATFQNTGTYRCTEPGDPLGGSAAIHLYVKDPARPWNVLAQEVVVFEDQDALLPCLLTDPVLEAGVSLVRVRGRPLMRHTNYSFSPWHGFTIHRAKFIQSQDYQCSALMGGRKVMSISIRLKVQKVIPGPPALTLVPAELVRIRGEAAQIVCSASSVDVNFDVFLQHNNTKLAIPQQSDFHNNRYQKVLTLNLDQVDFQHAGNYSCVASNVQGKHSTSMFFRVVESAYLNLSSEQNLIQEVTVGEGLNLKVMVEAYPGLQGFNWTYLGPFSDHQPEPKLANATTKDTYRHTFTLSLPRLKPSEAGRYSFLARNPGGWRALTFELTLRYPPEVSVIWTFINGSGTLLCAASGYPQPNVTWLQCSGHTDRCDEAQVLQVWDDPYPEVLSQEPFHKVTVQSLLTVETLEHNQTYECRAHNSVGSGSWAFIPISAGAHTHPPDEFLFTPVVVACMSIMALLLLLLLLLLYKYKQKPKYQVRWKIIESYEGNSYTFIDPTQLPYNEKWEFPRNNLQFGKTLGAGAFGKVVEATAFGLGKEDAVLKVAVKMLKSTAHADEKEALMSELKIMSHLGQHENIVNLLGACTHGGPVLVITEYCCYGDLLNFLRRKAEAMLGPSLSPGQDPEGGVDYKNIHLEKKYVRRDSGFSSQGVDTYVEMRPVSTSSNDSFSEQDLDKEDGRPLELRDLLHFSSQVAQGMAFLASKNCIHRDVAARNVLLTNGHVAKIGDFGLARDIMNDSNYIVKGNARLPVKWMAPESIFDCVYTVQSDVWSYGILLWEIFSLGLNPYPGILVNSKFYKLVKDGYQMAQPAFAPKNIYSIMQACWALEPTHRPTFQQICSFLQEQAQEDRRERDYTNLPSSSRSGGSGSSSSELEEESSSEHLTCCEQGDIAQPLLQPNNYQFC
Description: as §3, §4

MINK = biological target: T7, MINK (Homo sapiens, UniProt Q8N4C8); assay: Nanosyn kinase profiling; type: biochemical; details: read-out: Percentage inhibition
T7 construct: purchased Nanosyn (enzymatic panel); SGC in-house recombinant human kinases (DSF panel); Invitrogen (ALK1-6)
T7 sequence (Q8N4C8 whole entry): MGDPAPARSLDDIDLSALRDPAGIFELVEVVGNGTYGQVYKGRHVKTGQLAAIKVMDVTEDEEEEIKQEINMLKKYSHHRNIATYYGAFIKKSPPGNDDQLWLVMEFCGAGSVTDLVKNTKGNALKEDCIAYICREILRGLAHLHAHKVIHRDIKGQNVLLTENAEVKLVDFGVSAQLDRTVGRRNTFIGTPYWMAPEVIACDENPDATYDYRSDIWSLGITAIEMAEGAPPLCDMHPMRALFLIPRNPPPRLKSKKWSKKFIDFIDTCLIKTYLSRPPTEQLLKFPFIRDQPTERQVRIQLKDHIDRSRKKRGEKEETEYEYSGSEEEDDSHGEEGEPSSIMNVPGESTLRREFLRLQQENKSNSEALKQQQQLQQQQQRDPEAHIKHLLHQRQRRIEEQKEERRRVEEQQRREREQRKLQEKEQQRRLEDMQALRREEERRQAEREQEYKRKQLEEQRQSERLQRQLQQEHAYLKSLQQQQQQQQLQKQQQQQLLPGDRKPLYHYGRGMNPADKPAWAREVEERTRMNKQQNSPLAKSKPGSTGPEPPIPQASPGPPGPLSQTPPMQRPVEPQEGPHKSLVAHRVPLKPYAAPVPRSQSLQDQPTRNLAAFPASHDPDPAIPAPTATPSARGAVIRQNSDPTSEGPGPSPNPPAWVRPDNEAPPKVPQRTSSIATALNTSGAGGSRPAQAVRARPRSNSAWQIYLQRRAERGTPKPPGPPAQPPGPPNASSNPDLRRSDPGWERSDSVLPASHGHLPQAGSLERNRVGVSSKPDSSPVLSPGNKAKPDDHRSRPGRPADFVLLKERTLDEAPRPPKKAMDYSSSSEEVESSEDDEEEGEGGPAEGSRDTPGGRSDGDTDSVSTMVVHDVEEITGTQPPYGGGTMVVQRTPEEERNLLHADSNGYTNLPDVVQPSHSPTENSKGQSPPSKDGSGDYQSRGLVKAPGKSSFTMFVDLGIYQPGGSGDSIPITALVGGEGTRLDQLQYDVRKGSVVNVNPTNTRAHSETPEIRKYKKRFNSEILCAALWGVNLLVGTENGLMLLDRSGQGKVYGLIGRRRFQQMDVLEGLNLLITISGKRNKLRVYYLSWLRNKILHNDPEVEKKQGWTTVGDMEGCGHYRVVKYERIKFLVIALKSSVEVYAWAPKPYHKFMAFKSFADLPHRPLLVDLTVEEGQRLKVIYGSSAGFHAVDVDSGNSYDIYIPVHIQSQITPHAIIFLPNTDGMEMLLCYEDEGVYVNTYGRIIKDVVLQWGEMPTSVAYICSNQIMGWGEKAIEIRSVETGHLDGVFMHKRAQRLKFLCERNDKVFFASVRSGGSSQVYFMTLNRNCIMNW
Description: as §3, §4

[2] = test system: Tg(BRE:mRFP) transgenic zebrafish embryos; assay: Dorsalization of zebrafish embryos; type: in vivo; details: treated from the 8- to 16-cell stage, scored at 26 hours
Description: as §1, with “The zebrafish colony was maintained as described and embryos were raised at 28.5°C. The Tg(BRE:mRFP) transgenic line (also called BRE-mRFP) has been described previously and expresses mRFP in response to BMP signaling. […] Inhibitor” for “Inhibitor”, “[…])” for “Tg(fli1a:eGFP)”

ALK2 = test system: ALK2; design: method as in PMID 19914855; details: read-out: reported in vitro IC50 (enzymatic assays); cited from earlier work
C2C12 cells = details: cited from earlier work

| Compound | concentration at which loss of mRFP protein was evident [1] | IC50 (ALK3) | IC50 (ALK6) | IC50 (ALK4) | IC50 (ALK1) | inhibition at 0.1 µM (MAP4K4; 0.1 µM inhibitor) | inhibition at 1 µM (MAP4K4; 1 µM inhibitor) | inhibition at 0.1 µM (FMS; 0.1 µM inhibitor) | inhibition at 1 µM (FMS; 1 µM inhibitor) | inhibition at 0.1 µM (MINK; 0.1 µM inhibitor) | inhibition at 1 µM (MINK; 1 µM inhibitor) | concentration giving severely dorsalized phenotype [2] | IC50 (ALK2) | IC50 (C2C12 cells) |
| --- | --- | --- | --- | --- | --- | --- | --- | --- | --- | --- | --- | --- | --- | --- |
| COc1cc(-c2cc(-c3cccc(O)c3)cnc2N)cc(OC)c1OC [K02288, 3-[6-amino-5-(3,4,5-trimethoxy-phenyl)-pyridin-3-yl]-phenol] | 8 to 10 µM | 34.4 nM | 6.4 nM | 302 nM | 1.8 nM and 1 to 2 nM | 46% | 89% | 6.1% | 33% | 36% | 86% | 8 to 10 µM |  |  |
| c1cc(-c2cnn3cc(-c4ccc(OCCN5CCCCC5)cc4)cnc23)ccn1 [Dorsomorphin] |  |  |  |  |  |  |  |  |  |  |  |  | 50 nM | ~500 nM |
